In data set [1] the test system is human breast cancer cell lines MCF-7, T-47D and MDA-MB-231. Description: Cytotoxic activity (MTT assay), statements on the human breast cancer cell lines together. It is filed as cell-based. From the text:
Human erythrocytes were purchased from the Station of Blood Transfusion, Vladivostok. Human mammary epithelial cell line MCF-10A CRL-10317, human breast cancer cell lines T-47D HTB-133, MCF-7 HTB-22, and MDA-MB-231 CRM-HTB-26 were received from ATCC (Manassas, VA, USA). Culturing conditions: medium of RPMI-1640 with 1% penicillin/streptomycin (Biolot, St. Petersburg, Russia) and 10% fetal bovine serum (FBS) (Biolot, St. Petersburg, Russia) for T-47D cell line; Minimum Essential Medium (MEM) with 1% penicillin/streptomycin sulfate (Biolot, St. Petersburg, Russia) and FBS (Biolot, St. Petersburg, Russia) to a final concentration of 10% for MCF-7 and MDA-MB-231 cells; DMEM/F12 medium with 10% FBS, 20 ng/mL EGF, […], 100 ng/mL cholera toxin, 10 μg/mL insulin, and 1% penicillin/streptomycin (Bioinnlabs, Russia) for MCF-10A cell line.
Methodology: to each well of 96-well plates, the cell suspension (180 µL) with solution (20 µL) of tested glycoside in the certain concentration was placed (MCF-10A, MCF-7, T-47D, and MDA-MB-231—7 × 10^3 cells per well) and incubated in the atmosphere with 5% CO2 at 37 °C for 24 h. The times of incubation of cucumarioside A2-5 (6) and djakonoviosides C1 (1) and E1 (3), at concentrations of 0.5–12.0 μM with T-47D, MCF-7, or MDA-MB-231 cells, were 24, 48, and 72 hrs. Then, the solutions of tested compounds with medium were replaced by 100 µL of fresh medium, and 10 µL of 3-(4,5-dimethylthiazol-2-yl)-2,5-diphenyltetrazolium bromide (MTT) (PanReac, AppliChem, Darmstadt, Germany) stock solution (5 mg/mL) was added to each well and incubated for 4 h, followed by the addition of 100 µL of SDS-HCl solution (1 g SDS/10 mL d-H2O/17 µL 6 N HCl) and further incubated for 18 h. Multiskan FC microplate photometer (Thermo Fisher Scientific, Waltham, MA, USA) was used to measure the absorbance of the converted dye formazan at 570 nm. The concentration caused 50% cell metabolic activity inhibition (IC50), which expresses the cytotoxic activity of each glycoside. The experiments were conducted in triplicate, p ≤ 0.05.
(In general: Tetrazolium dyes change colour on reduction, which living cells bring about.)

The subject of another data set is human erythrocytes. Description: Hemolytic activity against human erythrocytes. It is filed as cell-based. To be noted: human erythrocytes; for HC50: Erythrocyte, 1 h at 37 °C, dose causing lysis of 50% erythrocytes, read-out: ED50, Erythrocytes (hemolytic activity); for hemolytic activity (in words): concentration range up to 50 µM. The procedure: Human blood (B(III) Rh+) was used to obtain erythrocytes by centrifuging 450× g three times for 5 min with phosphate-buffered saline (PBS) (pH 7.4) at 4 °C on centrifuge LABOFUGE 400R (Heraeus, Hanau, Germany). Ice-cold PBS (pH 7.4) was used for resuspension of erythrocytes residue to a final optical density of 1.5 at 700 nm, which was kept on ice. Then, 20 µL of tested compound solution or control—djakonovioside A1 [5]—were added to 180 µL of erythrocyte suspension in V-bottom 96-well plates and exposed for 1 h at 37 °C. Next, centrifugation at 900× g for 10 min on laboratory centrifuge LMC-3000 (Biosan, Riga, Latvia), led to layers’ separation, and 100 µL of supernatant was carefully decanted and transferred into new flat-plate each. The values of erythrocyte lysis were measured on microplate photometer Multiskan FC (Thermo Fisher Scientific, Waltham, MA, USA) at λ = 570 nm as hemoglobin concentration in supernatant. The effective dose, causing lysis of 50% erythrocytes (ED50), was calculated with SigmaPlot 14.0 software. All the experiments were carried out in triple repetitions, p ≤ 0.05.

Data set [2] concerns MCF-7 human breast cancer cell line. Description: cells. To be noted: for IC50: Homo sapiens, read-out: Cytotoxicity, IC50, MCF-7; for Selectivity Index (SI), MCF-7: ratio of IC50 for healthy (MCF-10A) and cancer cells. It is filed as cell-based.
For data set [3], the system named is T-47D human breast cancer cell line. In words: cells. In kind it is cell-based. The conditions noted are these: for IC50: Homo sapiens, T47D, read-out: Cytotoxicity, IC50, T-47D.
Data set [4] deals with triple-negative MDA-MB-231 human breast cancer cell line. Description: cells. In kind it is cell-based. The conditions noted are these: for IC50: Homo sapiens, read-out: Cytotoxicity, IC50, MDA-MB-231; for Selectivity Index (SI), MDA-MB-231: ratio of IC50 for healthy (MCF-10A) and cancer cells.
For data set [5], the system named is MDA-MB-231 cells. In words: Wound scratch migration assay, MDA-MB-231. The conditions noted are these: MDA-MB-231, concentration 1 μM, 24 h of incubation. In kind it is cell-based, human. The procedure: Attached to special migration plate plastic bottom MCF-7 or MDA-MB-231 cells were separated by a silicone insert (Culture-insert 2 Well 24, ibiTreat). After removing an insert, gap between the cells was 500 ± 50 μm. Cell debris and floating cells were deleted by washing twice with PBS; 10 μM of 5 mM initial solution of CFDA SE ((5,6)-carboxyfluorescein succinimidyl ester) (LumiTrace CFDA SE kit, Lumiprobe, Moscow, Russia) in DMSO was dissolved in PBS and added to cells for 5 min at 37 °C; after washing twice with PBS, the fresh culture medium was added. Then, cells were treated with various concentrations of glycosides or culture medium only (vehicle control) and left for 24 and 72 h. Cell migration into the wound area was observed under a fluorescence microscope (MIB-2-FL, LOMO, Russia) with objective 10× magnification.

The next data set is described as follows: in vitro. To be noted: human; for IC50: MTT, 24 h incubation, read-out: Cytotoxicity, IC50, MCF-10A. It is filed as cell-based.
The test system of data set [6] is MDA-MB-231 cells. Description: Colony formation (clonogenic) assay, MDA-MB-231. In kind it is cell-based, human. The conditions noted are these: 10 days. On the procedure: The influence of glycosides on colony formation by MCF-7 or MDA-MB-231 cells was tested by the clonogenic assay. Cell density: 1 × 10^3 for MDA-MB-231 and 0.3 × 10^3 for MCF-7 cells per well; cell culture: MEM media, 10% FBS, 10,000 U/mL of penicillin, and 10,000 μg/mL of streptomycin supplemented or not (control) with different concentration of glycosides; incubation conditions: 10 days, 37 °C, atmosphere with 5% CO2; obtained: visible to eye colonies (at least 50 cells per colony); fixation with methanol (25 min); staining with 0.5% solution of crystal violet (25 min); washing and air-drying of plates.

[7] abbreviates: MDA-MB-231, MTT, 24 h incubation.

The structures appear in SMILES notation. Entries after “also recorded” stand apart in the source; their conditions may differ. Counter-ions that a name gives are not always drawn. Like-named read-outs stand apart in the source and are kept apart here. Bounds are passed on as bounds.

Broadly, the melting point is the temperature, or range, at which the solid turns liquid. For orientation: IC50 means the concentration at which inhibition is half-maximal.

Turning to `COC1C(O)C(COS(=O)(=O)O)OC(OC2C(O)C(COS(=O)(=O)O)OC(OC3C(C)OC(OC4C(OC5CCC6(C)C7=CCC8(C)C(C(C)=O)CCC8(C)C7CCC6C5(C)C)OCC(OS(=O)(=O)O)C4O)C(OC4OCC(O)C(O)C4O)C3O)C2O)C1O` (stereo not drawn) (hydrate or solvate) [isokoreoside A], the melting point came to 215 °C.
For `COC1C(O)C(CO)OC(OC2C(O)C(CO)OC(OC3C(C)OC(OC4C(OC5CCC6(C)C7CCC89C(=O)OC(C)(CC(=O)CC(C)C)C8C(OC(C)=O)CC9(C)C7=CCC6C5(C)C)OCC(OS(=O)(=O)O)C4O)C(OC4OCC(O)C(O)C4O)C3O)C2O)C1O` (stereo not drawn) [cucumarioside A2-5], in data set [1] (incubation for 48 and 72 h, 1 on MDA-MB-231, 6 on T-47D and MDA-MB-231), the “cytotoxicity on prolonged incubation (in words)” value is given as “did not lose cytotoxicity over time”. The HC50 with human erythrocytes was 1.63 ± 0.13 µM. Further, the IC50 came to 25.7 ± 1.49 µM in data set [2] (MCF7, MTT, 24 h incubation); 5.81 ± 0.86 µM in data set [3] (MTT, 24 h incubation); 2.58 ± 0.1 µM in data set [4] (setting [7]); 14 ± 1.03 µM in the data set “in vitro”. In addition, the “Selectivity Index (SI), MCF-7” value in data set [2] was found to be 0.55. In addition, the “Selectivity Index (SI), T-47D” value in [3] (ratio of IC50 for healthy (MCF-10A) and cancer cells) is reported as 2.41. Besides, the “Selectivity Index (SI), MDA-MB-231” value in data set [4] was found to be 5.43. Also, the “inhibition of cell migration (scratch assay)” value in the data set on MDA-MB-231 cells [5] (1 µM) is reported as “about 85 % as compared to the control”; in the data set with MDA-MB-231 cells [5] (listed as Cucumarioside A2-5, 1 µM), 85 % as compared to the control.
Take `COC1C(O)C(CO)OC(OC2C(O)C(COS(=O)(=O)O)OC(OC3C(C)OC(OC4C(OC5CCC6(C)C7CCC8(C)C(C(C)=O)CCC8(C)C7=CCC6C5(C)C)OCC(OS(=O)(=O)O)C4O)C(OC4OCC(O)C(O)C4O)C3O)C2O)C1O` (stereo not drawn) [cucumarioside A3-2]: the “cytotoxic activity against human tumor cell lines (in words)” value in data set [1] (MCF-7, T-47D, MDA-MB-231, concentration range up to 50 µM) is listed as “not active”. Further, the HC50 in the data set on human erythrocytes is 17.9 ± 0.48 µM. Further, in the data set on human erythrocytes, the “hemolytic activity (in words)” value is reported as “moderate hemolytic activity; also recorded: low hemolytic activity”. In addition, the IC50 is over 50 µM in data set [2] (MCF7, MTT, 24 h incubation); over 50 µM in data set [3] (MTT, 24 h incubation); over 50 µM in [4] (setting [7]); over 50 µM in “in vitro”.
Consider `C=C(C)CCCC1(C)OC(=O)C23CCC4C(=CCC5C(C)(C)C(OC6OCC(OS(=O)(=O)O)C(O)C6OC6OCC(OC7OC(CO)C(O)C(OC8OC(CO)C(O)C(OC)C8O)C7O)C(O)C6OC6OCC(O)C(O)C6O)CCC45C)C2(C)CC(OC(C)=O)C13` [djakonovioside C1, 3β-O-{3-O-methyl-β-D-glucopyranosyl-(1→3)-β-D-glucopyranosyl-(1→4)-[(1→2)-β-D-xylopyranosyl]-β-D-xylopyranosyl-(1→2)-4-O-sodium sulfate-β-D-xylopyranosyl}-16β-acetoxyholosta-7,25-dien], for which the “cytotoxicity on prolonged incubation (in words)” value in data set [1] was “did not lose cytotoxicity over time”. Also, the HC50 with human erythrocytes came out at 8.55 ± 0.04 µM. Further, the “hemolytic activity (in words)” value in the data set on human erythrocytes (listed as Djakonovioside C1) is on record as “slightly lower activity”. Also, the IC50 amounted to 38.6 ± 2.36 µM in data set [2] (MCF7, 24 h); 16.8 ± 0.76 µM in [3] (24 h); 7.67 ± 0.32 µM in data set [4] (MDA-MB-231, 24 h). Further, the “Selectivity Index (SI), MCF-7” value in [2] is recorded as 0.56. The “Selectivity Index (SI), MDA-MB-231” value in data set [4] worked out at 2.84. This compound also had an IC50 at 24 h in “in vitro” of 21.8 ± 0.72 µM. In the data set on MDA-MB-231 cells [6] (MDA-MB-231, concentration 1 μM), the “inhibitory effect on the formation and growth of colonies” value is given as “approximately 25 % of the control”. Moreover, the “inhibitory effect on the formation of colonies” value with MDA-MB-231 cells [6] (MDA-MB-231, concentration 2 μM) was “approximately 25 % of the control”.

Source of the values: paper PMC10744391, “Sulfated Triterpene Glycosides from the Far Eastern Sea Cucumber Cucumaria djakonovi: Djakonoviosides C1, D1, E1, and F1; Cytotoxicity against Human Breast Cancer Cell Lines; Quantitative Structure–Activity Relationships” (Marine Drugs, 2023).
